Experimental data: article PMC5391603, “Identification and functional characterisation of a Schistosoma japonicum insulin-like peptide” (Parasites & Vectors, 2017)
Entries after “also recorded” stand apart in the source; their conditions may differ.

How the values were obtained:
[1] = ADP assay (ADP hydrolysis/consumption by proteins); assay type: biochemical; conditions: ADP assay kit, protein 0.13 mg/ml, 20 min incubation, ADP 0, 5, 15, 30 μM
Protocol: To measure the level of hydrolysis of ADP by the schistosome ILP, ADP assay kits (Sigma-Aldrich) were used to measure ADP levels of recombinant schistosome ILPs after their interaction with different concentrations of ADP. ADP levels in various proteins (0.13 mg/ml) were determined following their incubation for 20 min with different concentrations of ADP (0, 5, 15, 30 μM).

[2] = test system: Erk (p44/42 MAPK) in adult S. japonicum; assay: Erk phosphorylation in adult worms, Western blot with anti-phospho-P44/42 MAPK (Erk1/2) antibody; assay type: cell-based
Excerpt: It had been shown previously that an anti-phospho-P44/42 MAPK (Erk1/2) antibody could recognize exclusively activated (phosphorylated) forms of this kinase in S. mansoni because of the high sequence homology in key phosphorylation sites between kinases from schistosomes and humans, and because phosphorylation at these sites is vital for enzyme activation. […] Worms from the different groups were then collected for SWAP extraction which was undertaken in the presence of HALT protease/phosphatase inhibitor cocktail (ThermoFisher, Waltham, USA). SDS-PAGE/Western blotting was carried out as described above using the Odyssey system. […] An anti-actin antibody (Sigma-Aldrich) (1:150) was used to assess protein-loading differences. OdysseyClassic 3.0 software was used for Western blot quantification.

[3] = test system: S. japonicum IRs (SjIR1 and SjIR2); set-up: method as in PMID 25961574; conditions: ref [18]; cited from earlier work
[4] = test system: adult S. japonicum; conditions: in vitro, ref [15], cited from earlier work
Excerpt: The life-cycle of schistosomes involves snail intermediate hosts and definitive mammalian hosts including humans, in whom schistosomes can survive for decades. Remarkably, the highly sophisticated relationship between schistosomes and their mammalian hosts seems to involve exploitation by these parasites of host endocrine and immune signals. By binding many ligands including hormones, growth factors, cytokines, receptor tyrosine kinases (RTKs), which are high-affinity cell surface receptors, can be activated to trigger different signalling cellular cascades for the regulation ...

[5] = biological target: recombinant Schistosoma japonicum insulin-like peptide, C-terminal fragment T31-S130 (S. japonicum); assay: BLI; Octet RED, 25 °C; biotinylated rSjILP (150 ng/μl) immobilised on streptavidin biosensors, exposed to rSjLD1 or rSjLD2 (7, 14, 28, 56, 112 ng/μl); kinetic buffer (1 mM phosphate, 15 mM NaCl, 0.1 mg/ml BSA, 0.002% Tween-20); association 1000 s, dissociation 1000 s; BSA as reference
[6] = biological target: T1, recombinant ligand domain of S. japonicum insulin receptor 1 (S. japonicum, biotin (NHS-PEO4-biotin kit) where it was immobilised on streptavidin biosensors); assay: BLI
T1 chain: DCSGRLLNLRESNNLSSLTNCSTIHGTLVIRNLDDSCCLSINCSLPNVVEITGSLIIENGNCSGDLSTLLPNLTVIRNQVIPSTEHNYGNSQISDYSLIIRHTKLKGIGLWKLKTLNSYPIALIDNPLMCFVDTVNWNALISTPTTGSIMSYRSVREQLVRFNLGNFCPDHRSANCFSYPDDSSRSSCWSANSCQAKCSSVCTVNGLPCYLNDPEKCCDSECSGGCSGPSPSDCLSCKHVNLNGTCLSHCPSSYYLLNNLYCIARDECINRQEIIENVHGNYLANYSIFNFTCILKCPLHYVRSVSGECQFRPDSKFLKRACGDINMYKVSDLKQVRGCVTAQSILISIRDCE

Molecule: human insulin: human insulin (Sigma-Aldrich)
- ADP hydrolysis, result in words [1]: no ADP binding ability was observed
- reduction of Erk band intensity compared with worms co-stimulated with rSjILP and insulin ([2]; human insulin only (1 μM), 30 min, t (6) = 31.39, P = 0.001, experiment performed twice): 58%
- Erk phosphorylation (44 kDa band), result in words ([2]; rSjILP 1 μM and/or human insulin 1 μM, 30 min in DMEM, anti-phospho-P44/42 MAPK antibody (1:1,000), experiment performed twice): The Erk band was also detectable; also recorded: more phosphorylated Erk was observed in worms stimulated with human insulin compared with worms cultured without insulin
- reduction of Erk band intensity in worms without human insulin and rSjILP, compared with insulin only ([2]; value is the intensity of untreated worms relative to human insulin only (1 μM), 30 min, t (6) = 4.353, P = 0.049): 30%
- binding of human insulin to SjIR1 and SjIR2, in words [3]: bind strongly with both SjIR1 and SjIR2
- increase of glucose content of adult female S. japonicum ([4]; female worms): 2.9 fold
- increase of glucose content of adult male S. japonicum ([4]; male worms): 1.7 fold

Molecule: recombinant ligand domain of S. japonicum insulin receptor 1 (domain or fragment)
- Kd [5]: 226 pM

Molecule: recombinant ligand domain of S. japonicum insulin receptor 2 (domain or fragment)
- Kd [5]: 160 pM

B1: recombinant Schistosoma japonicum insulin-like peptide, C-terminal fragment T31-S130 (domain or fragment)
chain: THSLPELQTDYTPINDYPIRMCGNEFLRHLKRVCAIRGIYTPLVRFKRSLEQYYDRILQRGKRFDDLCTLYTIYEPDQVVTKCCCIGCTRSYLEQFCNPS
modifications: biotin (NHS-PEO4-biotin kit) where it was immobilised on streptavidin biosensors
- Kd [6]: 255 pM
